Measurements published in PubChem BioAssay AID602322 (The Scripps Research Institute Molecular Screening Center, 2012).
Calls of active or inactive are those of the source. No rule for the calls is given here.

Legend:
[1] = biological target: Monoacylglycerol lipase ABHD6 (Mus musculus) (UniProt Q8R2Y0); experiment: DAGLb and ABHD6 inhibitors by competitive ABPP – biochemical, gel-based competitive ABPP, fluorescent probe, mouse, selectivity assay for DAGLb inhibitor project, dose response (AID 602322); conditions: proteome
Monoacylglycerol lipase ABHD6 (Mus musculus), sequence (Q8R2Y0 whole entry, looked up): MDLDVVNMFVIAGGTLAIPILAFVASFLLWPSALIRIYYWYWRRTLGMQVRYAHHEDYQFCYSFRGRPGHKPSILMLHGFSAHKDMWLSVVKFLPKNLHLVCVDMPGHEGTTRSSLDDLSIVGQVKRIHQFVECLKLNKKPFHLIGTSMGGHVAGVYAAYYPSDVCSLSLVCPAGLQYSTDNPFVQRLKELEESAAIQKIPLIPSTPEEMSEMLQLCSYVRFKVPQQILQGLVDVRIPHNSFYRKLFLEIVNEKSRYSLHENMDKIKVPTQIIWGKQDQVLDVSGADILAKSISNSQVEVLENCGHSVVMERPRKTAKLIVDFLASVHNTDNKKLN

[2] = biological target: Diacylglycerol lipase-beta (Mus musculus) (UniProt Q91WC9); experiment: as above; conditions: proteome, DAGLb
Diacylglycerol lipase-beta (Mus musculus), sequence (Q91WC9 whole entry, looked up): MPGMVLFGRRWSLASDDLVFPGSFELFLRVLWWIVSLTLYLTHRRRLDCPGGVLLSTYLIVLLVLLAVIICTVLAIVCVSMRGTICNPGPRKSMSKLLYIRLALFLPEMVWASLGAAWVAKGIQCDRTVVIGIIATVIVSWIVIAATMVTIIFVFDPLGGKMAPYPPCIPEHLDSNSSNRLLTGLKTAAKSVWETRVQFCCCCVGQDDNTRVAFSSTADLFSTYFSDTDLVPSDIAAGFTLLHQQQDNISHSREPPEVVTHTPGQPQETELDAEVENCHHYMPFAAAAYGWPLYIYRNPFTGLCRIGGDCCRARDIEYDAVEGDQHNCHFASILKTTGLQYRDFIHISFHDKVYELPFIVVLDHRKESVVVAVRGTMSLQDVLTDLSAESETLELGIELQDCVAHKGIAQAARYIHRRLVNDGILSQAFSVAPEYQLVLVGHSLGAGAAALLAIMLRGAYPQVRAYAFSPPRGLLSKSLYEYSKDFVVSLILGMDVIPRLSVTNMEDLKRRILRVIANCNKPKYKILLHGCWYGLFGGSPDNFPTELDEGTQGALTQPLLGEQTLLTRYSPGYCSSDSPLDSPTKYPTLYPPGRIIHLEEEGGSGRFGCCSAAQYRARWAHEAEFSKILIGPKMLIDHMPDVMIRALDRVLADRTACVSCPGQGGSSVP

| IC50 [1] | IC50 [2] | Structure (SMILES) |
| --- | --- | --- |
| 9.9 nM | > 100 nM (inactive) | O=C(N1CCCCC1c1ccccc1)n1cc(-c2ccc(-c3ccccc3)cc2)nn1 (stereo unspecified) |
| – | > 100 nM (inactive) | O=C(N1CCCCC1c1ccccc1)n1cc(-c2ccc(-c3cccc(CO)c3)cc2)nn1 (stereo unspecified) |
| 38 nM | > 3330 nM (inactive) | COc1ccc(-c2ccc(-c3cn(C(=O)N4CCCCC4c4ccccc4)nn3)cc2)cc1 (stereo unspecified) |
| – | > 100 nM (inactive) | O=C(O)c1cccc(-c2ccc(-c3cn(C(=O)N4CCCCC4Cc4ccccc4)nn3)cc2)c1 (stereo unspecified) |
